{"source": "patent US8101375B2", "about": "“Compositions and methods for detecting phosphomonoester” (Illumina, Inc., priority 2005, dated 2012)", "key": {"p60c-src kinase": {"target": "p60c-src kinase (Homo sapiens, UniProt P12931)", "sequence (P12931 whole entry)": "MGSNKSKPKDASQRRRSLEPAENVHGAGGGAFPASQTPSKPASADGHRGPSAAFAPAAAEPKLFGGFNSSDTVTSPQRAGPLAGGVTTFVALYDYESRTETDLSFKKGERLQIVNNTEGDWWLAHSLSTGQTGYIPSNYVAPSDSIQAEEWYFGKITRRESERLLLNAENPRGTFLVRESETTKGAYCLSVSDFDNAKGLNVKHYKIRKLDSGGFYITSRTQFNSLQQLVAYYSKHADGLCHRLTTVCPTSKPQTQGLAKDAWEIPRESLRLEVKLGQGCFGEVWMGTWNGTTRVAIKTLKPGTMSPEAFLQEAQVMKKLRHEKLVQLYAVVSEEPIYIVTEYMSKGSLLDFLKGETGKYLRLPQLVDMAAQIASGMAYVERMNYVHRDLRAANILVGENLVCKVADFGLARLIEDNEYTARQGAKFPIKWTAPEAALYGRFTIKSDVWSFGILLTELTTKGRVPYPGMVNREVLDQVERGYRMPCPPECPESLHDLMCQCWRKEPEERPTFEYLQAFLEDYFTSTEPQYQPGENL", "experiment": "Multiplex kinase profiling assay, 194-target pool, chemical labeling, p60c-src kinase", "assay_type": "biochemical", "conditions": "chemical labeling with low pH EDC pre-treatment", "experimental": "(§1) A kinase profiling assay was carried out in four major steps, including the phosphorylation of protein target in a kinase enzyme reaction, labeling of phosphorylated target, hybridization of labeled target to the array, and detection of hybridized target on the array.\n(§2) In the first step, phosphorylation was carried out in duplex format such that a mixture of two DNA-protein conjugate targets, one having an amino acid recognition sequence for p60c-src kinase and the other for PKA kinase, were co-incubated with p60c-src kinase and PKA kinase. The reaction was performed in 15 ul of 50 mM HEPES, containing 0.1 mM EDTA, 0.015% Brig 35, 0.15 mM ATP, 30 mM MgCl2, 0.1% 2-mercaptoethanol, pH 7.5.\n(§3) Upon completion of the enzymatic reaction; the second step was carried out to detect phosphorylation using chemical labeling or antibody-based labeling. In the chemical labeling method, a solution of 5-(aminoacetamido)fluorescein (NH2-FAM, Molecular Probes, Oreg.) and EDC in MES buffer, pH 6.0, was added to the reaction mixture to a final concentration of 150 mM EDC and 200 μM of NH2-FAM. Where pre-treatment was used to block (i.e. protect) […] moieties, the pH of the reaction mixture was first adjusted to pH 4.5 and then pre-treated with 100 mM of EDC for 1.5 hours at 25° C. After the pre-treatment, the NH2-FAM and EDC were added and the reaction was allowed to proceed overnight. […]"}, "PKA kinase": {"target": "PKA kinase (Homo sapiens, UniProt P17612)", "experiment": "Multiplex kinase profiling assay, 194-target pool, chemical labeling, PKA kinase", "assay_type": "biochemical", "conditions": "selectivity check", "experimental": "as §1, §2, §3"}}}
{"molecule": "COc1cc2ncnc(Nc3ccc(Oc4ccccc4)cc3)c2cc1OC", "note": "[Src Kinase Inhibitor I]", "values": [{"measurement": "inhibition of p60c-src kinase", "setting": "p60c-src kinase", "value": 85, "unit": "%"}, {"measurement": "effect on PKA kinase", "setting": "PKA kinase", "value": "no detectable effect"}]}
